Each structure is given as a SMILES string.

Our source for the zone of inhibition values is ChEMBL document CHEMBL1158301, “Isolation of guaianoid pigments from the gorgonian Calicogorgia granulosa” (1996).

Assay type in all cases: functional
Common to all, as to details: read-out: IZ

One test has as its system Escherichia coli. Put plainly: Antimicrobial activity against Escherichia coli at 25 ug/mL by paper disk assay.
For another test, the system named is Bacillus subtilis. The test can be described thus: Antimicrobial activity against Bacillus subtilis at 25 ug/mL by paper disk assay.
For a further test, the system named is Candida albicans. Put plainly: Antimicrobial activity against Candida albicans at 25 ug/mL by paper disk assay.

Consider `Cc1cc(Cc2cc(C)c3cc(C(C)C)ccc(C)c2-3)c2c(C)ccc(C(C)C)cc1-2`, for which the zone of inhibition at 25 µg/mL in the test with Escherichia coli and in the test on Bacillus subtilis was 3 mm in each case.
In the case of `Cc1cc(-c2cc(C)c3cc(C(C)C)ccc(C)c2-3)c2c(C)ccc(C(C)C)cc1-2`, the zone of inhibition at 25 µg/mL in the test with Escherichia coli came to 3 mm; in the test with Candida albicans, 5 mm; in the test with Bacillus subtilis, 8 mm.
